Measurements as given in patent US11207325B2, “Triazolopyrimidine compounds and uses thereof” (Novartis AG, priority 2014, dated 2021).

Test system: H3K27 methylation in G401 cell
Test: ELISA (H3K27 methylation) assay
Type: cell-based
Conditions: Homo sapiens, G-401; ELISA Qualified assay (H3K27 methylation); read-out: (c) IC50 (μM), ELISA Qualified
Text: ELISA (H3K27 Methylation) Assay

Fc1ccc2c(c1CNc1ncc(-c3ccc(N4CCOCC4)nc3)c3nncn13)CCO2 [Example 92, N-((5-fluoro-2,3-dihydrobenzofuran-4-yl)methyl)-8-(6-morpholinopyridin-3-yl)-[1,2,4]triazolo[4,3-c]pyrimidin-5-amine]
IC50: 0.0409 µM

Cc1noc(C)c1-c1cnc(NCc2cccc3c2CCO3)n2cnnc12 [Example 59, N-((2,3-dihydrobenzofuran-4-yl)methyl)-8-(3,5-dimethylisoxazol-4-yl)-[1,2,4]triazolo[4,3-c]pyrimidin-5-amine]
IC50: 0.086 µM

Cc1nn(C[C@@H](C)O)c(C)c1-c1cnc(NCc2c(F)ccc3c2CCO3)n2cnnc12 [Example 186, (2R)-1-(4-(5-(((5-fluoro-2,3-dihydrobenzofuran-4-yl)methyl)amino)-[1,2,4]triazolo[4,3-c]pyrimidin-8-yl)-3,5-dimethyl-1H-pyrazol-1-yl)propan-2-ol]
IC50: 0.0068 µM

Cc1cc(-c2cnc(NCc3cccc4c3CCO4)n3cnnc23)cnc1N1CCNC(=O)C1 [Example 105, 4-(5-(5-(((2,3-dihydrobenzofuran-4-yl)methyl)amino)-[1,2,4]triazolo[4,3-c]pyrimidin-8-yl)-3-methylpyridin-2-yl)piperazin-2-one]
IC50: 2.42 µM

Fc1ccc2c(c1CNc1ncc(-c3ccncc3)c3nncn13)CCO2 [Example 45, N-((5-fluoro-2,3-dihydrobenzofuran-4-yl)methyl)-8-(pyridin-4-yl)-[1,2,4]triazolo[4,3-c]pyrimidin-5-amine]
IC50: 0.0086 µM

Fc1ccc2c(c1CNc1ncc(-c3cncnc3C(F)F)c3nncn13)CCO2 [Example 191, 8-(4-(difluoromethyl)pyrimidin-5-yl)-N-((5-fluoro-2,3-dihydrobenzofuran-4-yl)methyl)-[1,2,4]triazolo[4,3-c]pyrimidin-5-amine]
IC50: 0.0344 µM

Nc1cc(F)c(-c2cnc(NCc3cccc4c3CCO4)n3cnnc23)cn1 [Example 58, 8-(6-amino-4-fluoropyridin-3-yl)-N-((2,3-dihydrobenzofuran-4-yl)methyl)-[1,2,4]triazolo[4,3-c]pyrimidin-5-amine]
IC50: 0.124 µM

CS(=O)(=O)c1ccc(-c2cnc(NCc3c(F)ccc4c3CCO4)n3cnnc23)cc1 [Example 37, N-((5-fluoro-2,3-dihydrobenzofuran-4-yl)methyl)-8-(4-(methylsulfonyl)phenyl)-[1,2,4]triazolo[4,3-c]pyrimidin-5-amine]
IC50: 0.0134 µM

CN(C)CCc1ccc(-c2cnc(NCc3cccc4c3CCO4)n3cnnc23)cn1 [Example 53, N-((2,3-dihydrobenzofuran-4-yl)methyl)-8-(6-(2-(dimethylamino)ethyl)pyridin-3-yl)-[1,2,4]triazolo[4,3-c]pyrimidin-5-amine]
IC50: 0.141 µM

Fc1ccccc1-c1cnc(NCc2c(F)ccc3c2CCO3)n2cnnc12 [Example 94, N-((5-fluoro-2,3-dihydrobenzofuran-4-yl)methyl)-8-(2-fluorophenyl)-[1,2,4]triazolo[4,3-c]pyrimidin-5-amine]
IC50: 0.0257 µM

c1cc(CNc2ncc(-c3ccc(C4CC4)nc3)c3nncn23)c2c(c1)OCC2 [Example 65, 8-(6-cyclopropylpyridin-3-yl)-N-((2,3-dihydrobenzofuran-4-yl)methyl)-[1,2,4]triazolo[4,3-c]pyrimidin-5-amine]
IC50: 0.11 µM

O=S(=O)(NCCO)c1ccc(-c2cnc(NCc3cccc4c3CCO4)n3cnnc23)cc1 [Example 40]
IC50: 1.34 µM

Cc1cnn(-c2cnc(NCc3c(F)ccc4c3CCO4)n3cnnc23)c1 [Example 239, N-((5-fluoro-2,3-dihydrobenzofuran-4-yl)methyl)-8-(4-methyl-1H-pyrazol-1-yl)-[1,2,4]triazolo[4,3-c]pyrimidin-5-amine]
IC50: 0.0382 µM

CS(=O)(=O)Nc1ccc(-c2cnc(NCc3cccc4c3CCO4)n3cnnc23)cc1 [Example 19, N-(4-(5-(((2,3-dihydrobenzofuran-4-yl)methyl)amino)-[1,2,4]triazolo[4,3-c]pyrimidin-8-yl)phenyl)methanesulfonamide]
IC50: 0.0401 µM

Cc1nn(C[C@H](C)O)c(C)c1-c1cnc(NCc2c(F)ccc3c2CCO3)n2cnnc12 [Example 187, (2S)-1-(4-(5-(((5-fluoro-2,3-dihydrobenzofuran-4-yl)methyl)amino)-[1,2,4]triazolo[4,3-c]pyrimidin-8-yl)-3,5-dimethyl-1H-pyrazol-1-yl)propan-2-ol]
IC50: 0.012 µM

Fc1ccc2c(c1CNc1ncc(-c3ccc(N4CCSCC4)nc3)c3nncn13)CCO2 [Example 91, N-((5-fluoro-2,3-dihydrobenzofuran-4-yl)methyl)-8-(6-thiomorpholinopyridin-3-yl)-[1,2,4]triazolo[4,3-c]pyrimidin-5-amine]
IC50: 0.0225 µM

Fc1ccc(-c2cnc(NCc3c(F)ccc4c3CCO4)n3cnnc23)c(Cl)c1 [Example 157, 8-(2-chloro-4-fluorophenyl)-N-((5-fluoro-2,3-dihydrobenzofuran-4-yl)methyl)-[1,2,4]triazolo[4,3-c]pyrimidin-5-amine]
IC50: 0.445 µM

CCc1ccc(-c2cnc(NCc3c(F)ccc4c3CCO4)n3cnnc23)c(C)n1 [Example 229, 8-(6-ethyl-2-methylpyridin-3-yl)-N-((5-fluoro-2,3-dihydrobenzofuran-4-yl)methyl)-[1,2,4]triazolo[4,3-c]pyrimidin-5-amine]
IC50: 0.0027 µM

O=C1CN(CCc2ccc(-c3cnc(NCc4cccc5c4CCO5)n4cnnc34)cn2)CCN1 [Example 109, 4-(2-(5-(5-(((2,3-dihydrobenzofuran-4-yl)methyl)amino)-[1,2,4]triazolo[4,3-c]pyrimidin-8-yl)pyridin-2-yl)ethyl)piperazin-2-one]
IC50: 1.21 µM

Cc1nn(C2CC2)c(C)c1-c1cnc(NCc2c(F)ccc3c2CCO3)n2cnnc12 [Example 179, 8-(1-cyclopropyl-3,5-dimethyl-1H-pyrazol-4-yl)-N-((5-fluoro-2,3-dihydrobenzofuran-4-yl)methyl)-[1,2,4]triazolo[4,3-c]pyrimidin-5-amine]
IC50: 0.0091 µM

Cn1cc(-c2cnc(NCc3c(F)ccc4c3CCO4)n3cnnc23)c(C(F)F)n1 [Example 200, 8-(3-(difluoromethyl)-1-methyl-1H-pyrazol-4-yl)-N-((5-fluoro-2,3-dihydrobenzofuran-4-yl)methyl)-[1,2,4]triazolo[4,3-c]pyrimidin-5-amine]
IC50: 0.003 µM

Fc1ccc2c(c1CNc1ncc(-c3ccc(C4CC4)nc3)c3nncn13)CCO2 [Example 119, 8-(6-cyclopropylpyridin-3-yl)-N-((5-fluoro-2,3-dihydrobenzofuran-4-yl)methyl)-[1,2,4]triazolo[4,3-c]pyrimidin-5-amine]
IC50: 0.0108 µM

c1cc(CNc2ncc(-c3cnn(C4CC4)c3)c3nncn23)c2c(c1)OCC2 [Example 149, 8-(1-cyclopropyl-1H-pyrazol-4-yl)-N-((2,3-dihydrobenzofuran-4-yl)methyl)-[1,2,4]triazolo[4,3-c]pyrimidin-5-amine]
IC50: 0.22 µM

Cc1c(-c2cnc(NCc3c(F)ccc4c3CCO4)n3cnnc23)cnn1C(C)C [Example 188, N-((5-fluoro-2,3-dihydrobenzofuran-4-yl)methyl)-8-(1-isopropyl-5-methyl-1H-pyrazol-4-yl)-[1,2,4]triazolo[4,3-c]pyrimidin-5-amine]
IC50: 0.0036 µM

CN(C)CCc1ccc(-c2cnc(NCc3cccc4c3CCO4)n3cnnc23)cc1 [Example 35, N-((2,3-dihydrobenzofuran-4-yl)methyl)-8-(4-(2-(dimethylamino)ethyl)phenyl)-[1,2,4]triazolo[4,3-c]pyrimidin-5-amine]
IC50: 0.0334 µM
